Measured values from ChEMBL document CHEMBL5352506, “The Zinc-Binding Group Effect: Lessons from Non-Hydroxamic Acid Vorinostat Analogs” (J Med Chem, 2023).

How the values were obtained:
[1] = molecular target: Histone deacetylase; format: cell-based, Homo sapiens; settings: hela
[2] = molecular target: T1, Histone deacetylase 8 (Homo sapiens, UniProt Q9BY41); experiment: Inhibition of human recombinant HDAC8
T1 sequence (Q9BY41 whole entry): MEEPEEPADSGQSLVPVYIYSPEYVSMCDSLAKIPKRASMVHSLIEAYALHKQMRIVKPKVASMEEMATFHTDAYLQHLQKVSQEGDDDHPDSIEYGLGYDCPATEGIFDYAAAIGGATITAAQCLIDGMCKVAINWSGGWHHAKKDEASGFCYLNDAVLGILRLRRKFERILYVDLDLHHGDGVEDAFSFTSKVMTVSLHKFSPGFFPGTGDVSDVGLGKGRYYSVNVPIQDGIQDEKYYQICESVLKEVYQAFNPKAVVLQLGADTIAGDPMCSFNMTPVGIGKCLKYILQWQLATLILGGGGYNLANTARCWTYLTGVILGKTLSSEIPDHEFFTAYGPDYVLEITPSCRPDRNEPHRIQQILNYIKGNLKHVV

[3] = system: A2780; experiment: Antiproliferative activity against human A2780 cells assessed as cell growth inhibition; format: functional, cell-based
[4] = molecular target: Histone deacetylase 1 (Homo sapiens, UniProt Q13547); experiment: Inhibition of human full-length recombinant HDAC1 incubated for 2 hrs by fluorescence based analysis
[5] = molecular target: T2, Protein deacetylase HDAC6 (Homo sapiens, UniProt Q9UBN7); experiment: Inhibition of human full-length recombinant HDAC6 incubated for 2 hrs by fluorescence based analysis
T2 sequence (Q9UBN7 whole entry): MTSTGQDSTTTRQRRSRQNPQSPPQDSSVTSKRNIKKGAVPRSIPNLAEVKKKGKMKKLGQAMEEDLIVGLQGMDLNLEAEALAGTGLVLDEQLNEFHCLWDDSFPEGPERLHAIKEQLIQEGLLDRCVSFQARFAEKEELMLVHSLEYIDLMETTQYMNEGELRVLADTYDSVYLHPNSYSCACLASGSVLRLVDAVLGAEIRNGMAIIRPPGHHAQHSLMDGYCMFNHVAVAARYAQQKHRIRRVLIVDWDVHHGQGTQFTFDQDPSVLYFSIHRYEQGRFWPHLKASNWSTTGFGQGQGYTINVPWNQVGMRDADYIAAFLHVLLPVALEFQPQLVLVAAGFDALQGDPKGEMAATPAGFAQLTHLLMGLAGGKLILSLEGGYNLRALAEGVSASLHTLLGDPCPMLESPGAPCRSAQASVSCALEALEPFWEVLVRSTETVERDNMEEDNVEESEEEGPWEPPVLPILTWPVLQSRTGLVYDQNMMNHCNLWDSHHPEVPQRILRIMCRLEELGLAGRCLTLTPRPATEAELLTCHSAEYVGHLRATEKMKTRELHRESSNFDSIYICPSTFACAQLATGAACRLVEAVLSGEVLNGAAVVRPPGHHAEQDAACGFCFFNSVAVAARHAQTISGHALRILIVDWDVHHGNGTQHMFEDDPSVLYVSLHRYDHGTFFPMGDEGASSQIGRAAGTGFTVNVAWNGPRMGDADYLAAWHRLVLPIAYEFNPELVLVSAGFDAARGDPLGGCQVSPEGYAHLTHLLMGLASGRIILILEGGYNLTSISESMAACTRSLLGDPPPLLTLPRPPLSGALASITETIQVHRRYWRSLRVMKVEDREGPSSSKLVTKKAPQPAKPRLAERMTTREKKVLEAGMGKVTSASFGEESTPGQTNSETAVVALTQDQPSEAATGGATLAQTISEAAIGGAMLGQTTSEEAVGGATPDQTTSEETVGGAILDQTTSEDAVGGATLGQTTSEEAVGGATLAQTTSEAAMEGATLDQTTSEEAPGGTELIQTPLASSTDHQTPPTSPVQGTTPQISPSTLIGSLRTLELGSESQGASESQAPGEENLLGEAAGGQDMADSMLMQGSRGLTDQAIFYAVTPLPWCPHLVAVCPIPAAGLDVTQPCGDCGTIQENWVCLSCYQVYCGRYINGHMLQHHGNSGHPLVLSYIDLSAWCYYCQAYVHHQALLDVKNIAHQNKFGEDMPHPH

[6] = Metabolic stability in mouse liver microsomes assessed as half life; format: ADME, Microsome
[7] = Stability in mouse plasma assessed as half life; format: ADME, cell-free
[8] = system: HEK-293T; experiment: Antiproliferative activity against HEK293T cells assessed as inhibition of cell growth by MTT assay; format: functional, cell-based; settings: Homo sapiens
[9] = system: MCF7; experiment: Antiproliferative activity against human MCF7 cells assessed as inhibition of cell growth by MTT assay; format: functional, cell-based
[10] = system: HeLa; experiment: Antiproliferative activity against human HeLa cells assessed as inhibition of cell growth by MTT assay; format: functional, cell-based
[11] = system: K562; experiment: Antiproliferative activity against human K562 cells assessed as inhibition of cell growth by MTT assay; format: functional, cell-based

Histone deacetylase 1, sequence (Q13547 whole entry): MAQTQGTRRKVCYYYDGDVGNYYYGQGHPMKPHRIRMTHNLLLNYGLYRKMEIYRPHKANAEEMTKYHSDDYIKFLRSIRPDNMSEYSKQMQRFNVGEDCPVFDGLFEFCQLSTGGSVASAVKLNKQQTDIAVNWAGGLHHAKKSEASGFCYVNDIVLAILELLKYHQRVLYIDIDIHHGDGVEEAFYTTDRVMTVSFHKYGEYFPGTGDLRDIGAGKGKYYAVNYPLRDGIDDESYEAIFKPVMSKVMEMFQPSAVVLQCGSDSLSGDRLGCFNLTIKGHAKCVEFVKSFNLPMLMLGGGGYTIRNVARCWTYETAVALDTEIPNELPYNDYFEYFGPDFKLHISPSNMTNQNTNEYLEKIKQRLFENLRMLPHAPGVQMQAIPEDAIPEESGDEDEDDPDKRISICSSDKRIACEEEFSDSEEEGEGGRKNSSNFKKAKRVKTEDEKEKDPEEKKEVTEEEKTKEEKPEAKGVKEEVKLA

SMILES: CP(=O)([O-])CCCCCCC(=O)Nc1ccccc1.[Li+]
- IC50 [1]: 8200 µM
- IC50 [2]: 390 µM
- IC50 [3]: 110 µM

SMILES: Cc1onc(-c2ccccc2)c1C(=O)NCCCCCCC(=O)NO
- IC50 [4]: 3 µM
- IC50 [5]: 0.18 µM

SMILES: Nc1ccccc1NC(=O)CCCCCCC(=O)Nc1ccccc1
- half-life [6]: 1.9 h
- half-life [7]: 1.9 h

SMILES: O=C(CCCCCSc1nc[nH]n1)Nc1ccccc1
- IC50 [1]: 8.1 µM
- IC50 [8]: 11.1 µM
- IC50 [9]: 11.1 µM
- IC50 [10]: 11.1 µM
- IC50 [11]: 11.1 µM
